Experimental data reported in patent publication US8889661B2 (Teva Pharmaceutical Industries, Ltd., priority 2010, dated 2014).

What was measured:
(NZBxNZW)F1 mice [1] = details: for proteinuria (PU): Week 12 observation, vs vehicle (water), laquinimod 25 mg/kg p.o. daily, CTX once weekly i.p., MW U test; for immune complex deposition (ICD) in kidney: end of experiment (12 weeks), vs vehicle, scoring and image analysis
Source text: Systemic Lupus Erythematosus (SLE) is a disorder of generalized autoimmunity characterized by defective T cell-mediated responses and the formation of a variety of antibodies reactive to self or altered self-antigens. SLE is mainly characterized by the presence of anti-DNA antibodies. Some of these auto-antibodies combine with the corresponding auto-antigens, forming immune complexes, either in the circulating blood or directly in tissues, resulting in severe damage. Glomerulonephritis induced by immune complexes is in fact the major cause of death in patients with SLE. (NZBxNZW)F1 are lupus-prone mice that develop an SLE-like disease spontaneously including anti-dsDNA antibodies (Abs), proteinuria and Immune Complex Deposits (ICD). The (NZBxNZW)F1 (NZB/W) murine model is the hallmark of spontaneous SLE.
MTX is an antimetabolite drug used in treatment of cancer and autoimmune diseases. It acts by inhibiting the metabolism of folic acid via the inhibition of dihydrofolate reductase and blocks DNA synthesis in rapidly proliferate cells. These actions include immunosuppression.
CTX was applied once weekly in a dose of […] i.p. MTX was applied 3 times a week p.o. at 35 μg/mouse.
Also, body weight changes were recorded weekly and at the end of experiment both kidneys were preserved, one for possible conventional histology and one for immune complex detection (ICD) in glomeruli. Evaluation of ICD was performed by scoring and by image analysis.
80 animals were involved in the study.

[2] = tested on: MRL/lpr lupus mouse model; experiment: Non-GLP in vivo evaluation of laquinimod in the MRL/lpr lupus mouse model; details: for kidney glomerulonephritis (histopathology) / salivary gland inflammation (histopathological scoring): laquinimod 5 mg/kg, vs vehicle; for kidney glomerulonephritis (histopathology): MMF 100 mg/kg p.o.; for salivary gland inflammation (histopathological scoring): MMF 100 mg/kg
Procedure: This study evaluates the efficacy of laquinimod in the MRL/lpr lupus mouse model.
Animals were monitored until their urine proteinuria reached >200 mg/dL at which time they were enrolled in the study.
Proteinuria, ankle and paw diameters, dsDNA autoantibody levels and survival were monitored during in life portion of the study. At termination, blood samples were harvested for determination of dsDNA autoantibody levels, spleens were harvested and weighed then processed to isolate splenocytes which were counted. Kidney, lung, skin, lymph node, salivary gland and joints were harvested, processed for histological examination and scored by a histopathologist blind to the treatments.

(NZBxNZW)F1 mice [3] = experiment: Survival dose response study of laquinimod in the (NZBxNZW)F1 model for SLE, 37 weeks; assay type: in vivo, mouse
Procedure: The positive control used was Cytoxan.
CTX was administered intraperitonealy once weekly, (200 μl/mouse). Blood samples were collected on Weeks 1, 5, 15 and 37. Serum samples were prepared for detection of anti-dsDNA antibodies. After 37 weeks (257 days) of treatment, mice were sacrificed.

(NZBxNZW)F1 mice [4] = experiment: Confirmation of efficacy of laquinimod in the (NZBxNZW)F1 model for SLE, 13 weeks; assay type: in vivo, mouse
Procedure: CTX was administered intraperitonealy once weekly, (200 μl/mouse). Blood samples were collected on Weeks 1, 5, and 11. Serum samples were prepared for detection of anti-dsDNA antibodies. After 13 weeks of treatment, mice were sacrificed and immune complex deposits in their kidneys were evaluated.

[5] = tested on: active lupus nephritis patients; experiment: Phase IIa clinical trial of laquinimod in combination with standard of care (MMF and steroids) in active lupus nephritis; assay type: in vivo, human
Source text: Approximately 45 Systemic Lupus Erythematosus patients with active lupus nephritis (LN) are enrolled. [ISN/RPS 2003 classification of lupus nephritis—classes III (A or A/C), IV-S or IV-G (A or A/C), or class V—pure or in combination with class III or IV].
The overall study duration is up to 32 weeks, with the screening phase being up to 4 weeks, the treatment period being 24 weeks and the follow-up period being 4 weeks for all subjects who complete the 24-week treatment period or subjects who prematurely discontinue treatment prior to Week 24 visit.
Placebo arm—2 capsules of placebo. Mycophenolate Mofetil (MMF)
MMF tablets 500 mg. All treatment arms receive MMF at baseline and throughout the study to a target dose of 2 g/day.
Subjects are assessed for study eligibility up to 4 weeks prior to baseline. Eligible subjects are initially randomized in a 1:1 ratio into one of the following two treatment arms: • 1.
Upon approval, randomization into one of the following three treatment arms occurs in a ratio that allows for reaching an overall target enrollment of approximately 15 subjects per treatment arm. Drop-outs are not replaced. • 1.
In addition, all receive IV methylprednisolone 500 mg/day for 3 days followed by 40 mg/day oral prednisolone/prednisone, which is tapered to not more than 10 mg/day by the end of Week 20, on a fixed steroid tapering regimen).
Any of the following results in early termination from the study: • 1. Increase in serum creatinine without improvement in proteinuria from 8 weeks onward (confirmed by repeated measurement within 2 weeks), defined as: • a. Serum creatinine >1.3 mg/dL that is at least 25% higher than the baseline value; and • b. […] Doubling of protein to creatinine ratio compared to baseline and protein to creatinine ratio >3 from Week 8 onwards (confirmed by repeated measurement within 2 weeks. At least one of the measurements should be a 24 hours urine collection). Outcome Measures Response Definitions • 1. Complete response (CR)—protein to creatinine ratio <0.5 and [decreased serum creatinine by at least 25% compared to baseline or serum creatinine <1.3 mg/dL]. • 2. […] BILAG renal response is defined as change from renal A or B at baseline to C or D. • 4. BILAG Substantial Responder (SR) is defined as all systems at last observed value (LOV) are C or D/E providing at least one system is A or B at baseline. Clinical Effect Outcome Measure Renal—System 1. Proportion of Subjects with Complete or Partial Response at Week 24 and the Lack of Treatment Failure

[6] = in vivo; cited from earlier work
[7] = daily oral 0.5 mg or 1 mg laquinimod with standard of care (MMF and steroids)
[8] = daily oral 0.5 mg or 1 mg laquinimod with standard of care, during the study period

## O=P1(N(CCCl)CCCl)NCCCO1 (stereo not drawn) [CTX, cyclophosphamide]
(NZBxNZW)F1 mice [1]
  proteinuria (PU): significantly diminished
  immune complex deposition (ICD) in kidney: significantly inhibited

## COc1c(C)c2c(c(O)c1C/C=C(\C)CCC(=O)OCCN1CCOCC1)C(=O)OC2 [MMF, 2-morpholinoethyl (E)-6-(1,3-dihydro-4-hydroxy-6-methoxy-7-methyl-3-oxo-5-isogenzofuranyl)-4-methyl-4-hexenoate, reference compound]
[2]; MMF 100 mg/kg p.o. vs vehicle
  lung BALT hyperplasia (histopathology): significant difference
[2]
  kidney glomerulonephritis (histopathology): significant reductions
  salivary gland inflammation (histopathological scoring): significant reduction

## CN(Cc1cnc2nc(N)nc(N)c2n1)c1ccc(C(=O)N[C@@H](CCC(=O)O)C(=O)O)cc1 [MTX, methotrexate]
(NZBxNZW)F1 mice [1]; 12 weeks treatment, 80 animals in the study
  animals died during the treatment period: 2
(NZBxNZW)F1 mice [1]; MTX 35 μg/mouse p.o. 3 times a week, 12 weeks
  symptoms (proteinuria and immune complex deposition in kidney): failed to inhibit

## CCN(C(=O)c1c(O)c2c(Cl)cccc2n(C)c1=O)c1ccccc1 [laquinimod]
(NZBxNZW)F1 mice [1]
  proteinuria (PU): significantly diminished
  immune complex deposition (ICD) in kidney: significantly inhibited
(NZBxNZW)F1 mice [3]; all doses of laquinimod (0.2, 1, 5, 25 mg/kg p.o. 5 days a week), vs vehicle
  progression of proteinuria: abrogated the progression of proteinuria
(NZBxNZW)F1 mice [3]; all doses of laquinimod, 37 weeks
  survival: significant prolongation of survival
(NZBxNZW)F1 mice [3]; laquinimod doses of 1, 5 and 25 mg/kg
  proteinuria, compared with positive control CTX: as effective as the positive control cyclophosphamide (CTX)
(NZBxNZW)F1 mice [3]; laquinimod lowest dose (printed 0.2 mg/ml), compared to the higher doses
  proteinuria: abrogated proteinuria but not to the same extent
(NZBxNZW)F1 mice [3]; serum, Weeks 1, 5, 15 and 37
  anti-dsDNA levels: dose dependent reduction in antibody levels over time
[2]; both doses of laquinimod (1 and 5 mg/kg) vs vehicle
  bone resorption (joint histopathology): Significant reductions
[2]; laquinimod 5 mg/kg compared with 1 mg/kg
  salivary gland inflammation score, higher vs lower dose: significantly lower score
[2]; laquinimod 5 mg/kg vs vehicle
  cartilage damage (joint histopathology): significant reduction
  joint inflammation (histopathology): significantly reduced
  splenocytes as percent of total spleen cells: significant reduction
[2]
  kidney glomerulonephritis (histopathology): significant reductions
  salivary gland inflammation (histopathological scoring): significant reduction
[2]; laquinimod 1 or 5 mg/kg p.o., trends not significant except sporadic time points
  measures during the in life phase (proteinuria, ankle and paw diameters, dsDNA autoantibody levels, survival): trend toward dose dependent efficacy
(NZBxNZW)F1 mice [4]; laquinimod 5 mg/kg
  anti-dsDNA levels: behaved similarly to the positive control CTX
  immune complex deposits: behaved similarly to the positive control CTX
(NZBxNZW)F1 mice [4]; laquinimod 0.2 and 5 mg/kg p.o. 5 days a week, 13 weeks
  disease progression as measured by proteinuria: abrogated disease progression
(NZBxNZW)F1 mice [4]; laquinimod low dose 0.2 mg/kg
  ICD (immune complex deposits): did not inhibit
  anti-dsDNA Ab titers: did not inhibit
  proteinuria: prevented increased proteinuria
[5]; 0.5 mg and 1.0 mg laquinimod daily with MMF and steroids
  effect of the combination of laquinimod, MMF and steroids on active lupus nephritis: significantly more than the additive effect of each agent alone
[5]; [7]
  complete response (CR): results in a complete response
  partial response (PR): results in a partial response
  proteinuria: reduces proteinuria
  tolerability and toxicity: well tolerated and has no toxicity
  treatment of active lupus nephritis: effective to treat active lupus nephritis
  urinary sediments: eliminates urinary sediments
[5]; [8]
  decrease of glomerular filtration rate (GFR) as compared to baseline: no more than 10%
  glomerular filtration rate (GFR) reached: greater than 70 ml/min/1.73 m^2
  increase of glomerular filtration rate (GFR) as compared to baseline: at least 25%
[6]
  oral bioavailability: high
